Results on one sequence are retold here after paper PMC9267059, “Selective Inhibition of Murine Cytomegalovirus Viral Gene Expression by the Antiviral Peptide TAT-I24” (International Journal of Molecular Sciences, 2022).

Data set [1] has as its system host-cell transcripts in NIH/3T3 cells infected with UV-inactivated MCMV. The experiment in a line: Host-cell transcript levels in cells infected with UV-irradiated MCMV. As to conditions: UV-inactivated MCMV MOI 2.5, 10 µM, 2 h post-infection, three independent experiments.
A further data set has as its system MCMV viral DNA. Briefly: MCMV viral DNA determined by ie1 PCR from RNA extracts. It is filed as cell-based, murine cytomegalovirus. As for the experimental part: The levels of viral DNA in the RNA extracts were also determined by PCR using the ie1 primer pair. In peptide-treated cells, the amount of viral DNA was about 60% compared to untreated cells. The amount of viral DNA declined in both settings between 2 and 8 h. […] This is in accordance with our earlier study using detection of the luciferase gene of MCMV strain delm157-luc rep.

Data set [2] deals with NIH/3T3 cells. Briefly: Cell viability assay (Cell Titer Glo 2.0). The data set is classed as cell-based. Particulars: 10 µM, 48 h, Cell Titer Glo 2.0 luminescence, eight replicates per group. As for the experimental part: NIH/3T3 cells were grown in CO2-independent medium supplemented with 10% fetal calf serum, 2 mM glutamine and 1% antibiotic-antimycotic (ThermoFisher; Darmstadt, Germany) and cultivated in a humidified atmosphere at 37 °C and passaged once a week. For determination of cell viability, NIH/3T3 cells were seeded at a density of 2 × 10^4 cells/well of a 96-well plate and treated with vehicle (DMSO) or 10 µM TAT-I24. After 48 h, cells were lysed using Cell Titer Glo 2.0 reagent (Promega; Mannheim, Germany) and luminescence recorded using a GloMax Multi instrument (Promega; Mannheim, Germany).

For data set [3], the system named is mouse cytomegalovirus (CMV). Particulars: cited from earlier work.
Data set [4] has as its system NIH/3T3 cells. As to conditions: 20 µM; cited from earlier work. The source says: This strain was also used in the present investigation. […] However, with increasing concentrations of TAT-I24, the cytopathic effects caused by the virus infection were inhibited (Figure 1A).
A further data set deals with BrdU-labelled MCMV DNA. Briefly: Staining of BrdU-labelled MCMV DNA in NIH/3T3 cells. The data set is classed as cell-based, murine cytomegalovirus. As for the experimental part: When infection of cells is performed with MCMV labelled with bromodeoxyuridine (BrdU), a clear reduction in BrdU-labelled genomes in TAT-I24-treated cells can be observed. It was speculated that this was due to the interaction of the peptide with the viral DNA, leading to the prevention of BrdU-antibody binding. This was further supported by the observation that the incubation of cells with TAT-I24 after fixation and permeabilization led to an impairment of BrdU-staining. As additional support for this concept, BrdU-labelled MCMV was adsorbed to NIH/3T3 cells at 4 °C in the absence or presence of 10 µM TAT-I24. Cells were then washed with ice-cold medium followed by transfer to 37 °C and fixation and permeabilization 30 min post-cold release. In one setting, cells were additionally treated with pepsin for 20 min at 37 °C to degrade the peptide.
NIH/3T3 cells were seeded at a density of 4 × 10^4 cells/well into ibiTreat eight-well chambers (ibidi, Gräfelfing, Germany). Bromodeoxyuridine (BrdU)-labelled virus was adsorbed to cells in the absence or presence of 10 µM TAT-I24 as described before. Pepsin treatment was performed by incubation of cells after fixation, permeabilization and denaturation with Pepsin Reagent, Ready to Use, Antigen Retriever (Merck; Schnelldorf, Germany) for 20 min. Cells were then washed twice with 1xTBE followed by three washes with PBS. […]

In a further data set the test system is SV40 polyomavirus. As to conditions: cited from earlier work. From the text:
(§1) We have described the novel antiviral peptide TAT-I24, a fusion of the 9-mer peptide I24 and the TAT peptide, which exerts broad-spectrum activity against several double-stranded DNA viruses. […] The antiv ...

A further data set concerns herpes simplex virus. Particulars: cited from earlier work.
Excerpt: as §1

The subject of data set [5] is human cytomegalovirus (CMV). As to conditions: cited from earlier work.
Excerpt: as §1

In data set [6] the test system is non-replicating baculovirus. As to conditions: mammalian cells; cited from earlier work.
Excerpt: as §1

The test system of a further data set is some adenoviruses. As to conditions: cited from earlier work.
Excerpt: as §1

The test system of data set [7] is respiratory syncytial virus (RSV). As to conditions: cited from earlier work.
Excerpt: as §1

Data set [8] has as its system human immunodeficiency virus-1 (HIV-1). As to conditions: cited from earlier work.
Excerpt: as §1

Another data set deals with vaccinia virus. Particulars: cited from earlier work.
Excerpt: as §1

The test system of another data set is MCMV. The experiment in a line: Crystal violet staining of MCMV-infected NIH/3T3 cells (cytopathic effects). The data set is classed as cell-based, murine cytomegalovirus. As for the experimental part:
This strain was also used in the present investigation. […] However, with increasing concentrations of TAT-I24, the cytopathic effects caused by the virus infection were inhibited (Figure 1A). […] For all further investigations, 10 µM of TAT-I24 was therefore chosen to ensure efficient inhibition of MCMV infection.
NIH/3T3 cells were seeded at a density of 2 × 10^4 cells/well of a 96-well plate and allowed to attach overnight. On the next day, cells were treated with increasing concentrations of TAT-I24 and infected with MCMV strain delm157-luc rep with centrifugal enhancement twice at 800× g for 15 min. After 48 h, cells were fixed with 4% formaldehyde and stained with 1% crystal violet solution for 30 min at room temperature followed by three times washing with water. Microscopic examination was performed using a Live Cell Video Microscope (Leica Microsystems; Wetzlar, Germany).

In the case of “GRKKRRQRRRPPQCLAFYACFC [TAT-I24, antiviral peptide, a fusion of the 9-mer peptide I24 and the TAT peptide]”, in [1], the Ccl5 transcript levels result is reported as “significantly reduced”, the Ccl7 transcript levels result is “significantly reduced” and the Cxcl10 transcript levels result is listed as “significantly reduced”. Also, the “viral DNA (genome copies by ie1 PCR)” value in the data set on MCMV viral DNA (MOI comparison experiment, MOI 1 with 10 µM, 2 h post-infection, two independent experiments) is “not reflected at the level of viral DNA”. In addition, the “viral DNA after 24 h” value with MCMV viral DNA (NIH/3T3, MCMV MOI 1, 10 µM, 24 h post-infection) was “remained at background levels”. In addition, in the data set with MCMV viral DNA (NIH/3T3, MCMV MOI 1, 10 µM, ie1 PCR, three independent experiments), the “amount of viral DNA compared to untreated cells” value was “about 60%”. The “cytotoxic effect (cell viability assay)” value with NIH/3T3 cells [2] is on record as “does not exert any cytotoxic effect”. The “replication of mouse cytomegalovirus (MCMV)” value in data set [3] is listed as “inhibit replication”. The cell viability entry with NIH/3T3 cells [4] was “does not affect cell viability”. The “BrdU-labelled genomes seen in cells” value in the data set on BrdU-labelled MCMV DNA (10 µM during adsorption at 4 °C, 30 min post-cold release, no pepsin) is reported as “almost no BrdU-labelled genomes”. In the data set with BrdU-labelled MCMV DNA (10 µM during adsorption, pepsin 20 min at 37 °C after fixation and permeabilization), the “BrdU-antibody staining after post-fixation pepsin treatment” value was “clear appearance of a punctate pattern”. For the same sequence, the “replication of SV40 polyomavirus” value in the data set with SV40 polyomavirus is given as “inhibit replication”. Also, in the data set with herpes simplex virus, the “replication of herpes simplex virus” value was “inhibit replication”. Further, the “replication of human cytomegalovirus” value in [5] is recorded as “inhibit replication”. Moreover, in data set [6], the “reporter gene expression from a non-replicating baculovirus” value was “reduction of reporter gene expression”. The “replication of some adenoviruses” value with some adenoviruses was “inhibit replication”. The “inhibition of RSV” value in [7] was “Partial inhibition”. Also, the “inhibition of HIV-1” value in data set [8] is given as “Partial inhibition”. Besides, the “replication of vaccinia virus” value in the data set on vaccinia virus is given as “inhibit replication”. Besides, the “effect on cell attachment and morphology” value with MCMV (20 µM) is “some effect on cell attachment and morphology”. Further, the “cytopathic effects caused by the virus infection” value in the data set with MCMV (MCMV MOI 1, 48 h post-infection, increasing concentrations of TAT-I24, crystal violet staining) is listed as “inhibited”.
